Data: PubChem BioAssay (NCI)
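48-hour exposure; five concentrations; linearly interpolated endpoints. GI50 = concentration required for 50% inhibition of growth. TGI: total growth inhibition.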

What was measured:
Assay in all cases: NCI anticancer screen, dose series, 48 h
KM12 colon = tested on: KM12 colon
SF-295 CNS = tested on: SF-295 CNS
A549 NSCLC = tested on: A549 NSCLC
SK-MEL-2 melanoma = tested on: SK-MEL-2 melanoma
SNB-19 CNS = tested on: SNB-19 CNS
SK-MEL-28 melanoma = tested on: SK-MEL-28 melanoma
HCC-2998 colon = tested on: HCC-2998 colon
SF-268 CNS = tested on: SF-268 CNS
PC-3 prostate = tested on: PC-3 prostate
IGROV1 ovarian = tested on: IGROV1 ovarian
ACHN renal = tested on: ACHN renal
MDA-MB-435 = tested on: MDA-MB-435
EKVX NSCLC = tested on: EKVX NSCLC
UACC-62 melanoma = tested on: UACC-62 melanoma
SW-620 colon = tested on: SW-620 colon
HT29 colon = tested on: HT29 colon
NCI-H460 lung = tested on: NCI-H460 lung
MCF7 breast = tested on: MCF7 breast
HL-60(TB) leukemia = tested on: HL-60(TB) leukemia
DU-145 prostate = tested on: DU-145 prostate
K-562 leukemia = tested on: K-562 leukemia
OVCAR-3 ovarian = tested on: OVCAR-3 ovarian
U251 CNS = tested on: U251 CNS
BT-549 breast = tested on: BT-549 breast
SNB-75 CNS = tested on: SNB-75 CNS
COLO 205 colon = tested on: COLO 205 colon
HOP-92 NSCLC = tested on: HOP-92 NSCLC
A498 renal = tested on: A498 renal
SK-MEL-5 melanoma = tested on: SK-MEL-5 melanoma
TK-10 renal = tested on: TK-10 renal
SN12C renal = tested on: SN12C renal
UACC-257 melanoma = tested on: UACC-257 melanoma
SF-539 CNS = tested on: SF-539 CNS
HCT-15 colon = tested on: HCT-15 colon
MALME-3M melanoma = tested on: MALME-3M melanoma
786-0 renal = tested on: 786-0 renal
CAKI-1 renal = tested on: CAKI-1 renal
MOLT-4 leukemia = tested on: MOLT-4 leukemia
RPMI-8226 leukemia = tested on: RPMI-8226 leukemia
LOX IMVI melanoma = tested on: LOX IMVI melanoma
M14 melanoma = tested on: M14 melanoma
RXF 393 renal = tested on: RXF 393 renal
CCRF-CEM leukemia = tested on: CCRF-CEM leukemia
NCI-H522 lung = tested on: NCI-H522 lung
UO-31 renal = tested on: UO-31 renal
NCI/ADR-RES ovarian = tested on: NCI/ADR-RES ovarian
OVCAR-5 ovarian = tested on: OVCAR-5 ovarian
SK-OV-3 ovarian = tested on: SK-OV-3 ovarian
HCT-116 colon = tested on: HCT-116 colon
T-47D breast = tested on: T-47D breast
HOP-62 NSCLC = tested on: HOP-62 NSCLC
OVCAR-8 ovarian = tested on: OVCAR-8 ovarian
NCI-H226 lung = tested on: NCI-H226 lung
MDA-MB-231 breast = tested on: MDA-MB-231 breast
HS 578T breast = tested on: HS 578T breast
NCI-H23 lung = tested on: NCI-H23 lung
OVCAR-4 ovarian = tested on: OVCAR-4 ovarian

**Q.** O=c1oc(-c2ccc(O)c(O)c2)cc2cccc(O)c12 was tested. Which TGI (KM12 colon) did it give?
**A.** 32.1 µM

**Q.** And the TGI (SF-295 CNS)?
**A.** 80.2 µM

**Q.** What about the TGI (A549 NSCLC) of the same molecule?
**A.** > 100 µM

**Q.** And the TGI (SK-MEL-2 melanoma)?
**A.** 69.7 µM

**Q.** And the TGI (SNB-19 CNS)?
**A.** > 76.9 µM

**Q.** And the GI50 (SK-MEL-28 melanoma)?
**A.** 24.6 µM

**Q.** And the TGI (SK-MEL-28 melanoma)?
**A.** 87.3 µM

**Q.** And the TGI (HCC-2998 colon)?
**A.** 37 µM

**Q.** What about the TGI (SF-268 CNS) of the same molecule?
**A.** > 85.2 µM

**Q.** And the TGI (PC-3 prostate)?
**A.** 47.3 µM

**Q.** And the TGI (IGROV1 ovarian)?
**A.** > 64.7 µM

**Q.** What about the TGI (ACHN renal) of the same molecule?
**A.** > 81.7 µM

**Q.** And the TGI (MDA-MB-435)?
**A.** 60.3 µM

**Q.** And the TGI (EKVX NSCLC)?
**A.** 51.2 µM

**Q.** What about the GI50 (UACC-62 melanoma) of the same molecule?
**A.** 16.6 µM

**Q.** And the TGI (UACC-62 melanoma)?
**A.** 37.3 µM

**Q.** And the TGI (SW-620 colon)?
**A.** 78.2 µM

**Q.** What about the GI50 (HT29 colon) of the same molecule?
**A.** 28.1 µM

**Q.** And the TGI (HT29 colon)?
**A.** > 100 µM

**Q.** And the TGI (NCI-H460 lung)?
**A.** > 68.2 µM

**Q.** What about the TGI (MCF7 breast) of the same molecule?
**A.** > 54.1 µM

**Q.** And the TGI (HL-60(TB) leukemia)?
**A.** 50.2 µM

**Q.** And the TGI (DU-145 prostate)?
**A.** 70.2 µM

**Q.** What about the TGI (K-562 leukemia) of the same molecule?
**A.** 49.2 µM

**Q.** And the TGI (OVCAR-3 ovarian)?
**A.** > 62.4 µM

**Q.** And the GI50 (U251 CNS)?
**A.** 17.1 µM

**Q.** And the TGI (U251 CNS)?
**A.** 79.1 µM

**Q.** What about the TGI (BT-549 breast) of the same molecule?
**A.** 49 µM

**Q.** And the TGI (SNB-75 CNS)?
**A.** > 100 µM

**Q.** What about the TGI (COLO 205 colon) of the same molecule?
**A.** > 48.3 µM

**Q.** What about the TGI (HOP-92 NSCLC) of the same molecule?
**A.** 43.4 µM

**Q.** What about the TGI (A498 renal) of the same molecule?
**A.** 42.4 µM

**Q.** What about the TGI (SK-MEL-5 melanoma) of the same molecule?
**A.** 23.4 µM

**Q.** And the TGI (TK-10 renal)?
**A.** > 49.1 µM

**Q.** And the TGI (SN12C renal)?
**A.** 46.1 µM

**Q.** What about the TGI (UACC-257 melanoma) of the same molecule?
**A.** 61.3 µM

**Q.** What about the TGI (SF-539 CNS) of the same molecule?
**A.** > 85.6 µM

**Q.** What about the TGI (HCT-15 colon) of the same molecule?
**A.** > 100 µM

**Q.** And the TGI (MALME-3M melanoma)?
**A.** > 86.5 µM

**Q.** And the TGI (786-0 renal)?
**A.** 85.9 µM

**Q.** What about the TGI (CAKI-1 renal) of the same molecule?
**A.** 38.7 µM

**Q.** What about the TGI (MOLT-4 leukemia) of the same molecule?
**A.** 52 µM

**Q.** And the TGI (RPMI-8226 leukemia)?
**A.** 29.5 µM

**Q.** And the GI50 (LOX IMVI melanoma)?
**A.** 12.5 µM

**Q.** What about the TGI (LOX IMVI melanoma) of the same molecule?
**A.** 37.2 µM

**Q.** What about the TGI (M14 melanoma) of the same molecule?
**A.** 51.8 µM

**Q.** And the TGI (RXF 393 renal)?
**A.** 69.3 µM

**Q.** What about the TGI (CCRF-CEM leukemia) of the same molecule?
**A.** > 46.1 µM

**Q.** And the TGI (NCI-H522 lung)?
**A.** > 50.8 µM

**Q.** What about the TGI (UO-31 renal) of the same molecule?
**A.** > 59.4 µM

**Q.** What about the TGI (NCI/ADR-RES ovarian) of the same molecule?
**A.** 51.3 µM

**Q.** What about the TGI (OVCAR-5 ovarian) of the same molecule?
**A.** 86.5 µM

**Q.** And the TGI (SK-OV-3 ovarian)?
**A.** 74.9 µM

**Q.** What about the TGI (HCT-116 colon) of the same molecule?
**A.** 23.7 µM

**Q.** What about the TGI (T-47D breast) of the same molecule?
**A.** 9.46 µM

**Q.** And the TGI (HOP-62 NSCLC)?
**A.** 47.3 µM

**Q.** What about the TGI (OVCAR-8 ovarian) of the same molecule?
**A.** > 100 µM

**Q.** And the GI50 (NCI-H226 lung)?
**A.** 15.2 µM

**Q.** What about the TGI (NCI-H226 lung) of the same molecule?
**A.** 58.7 µM

**Q.** What about the GI50 (MDA-MB-231 breast) of the same molecule?
**A.** 14.1 µM

**Q.** What about the TGI (MDA-MB-231 breast) of the same molecule?
**A.** 46.9 µM

**Q.** What about the TGI (HS 578T breast) of the same molecule?
**A.** 73.2 µM

**Q.** What about the TGI (NCI-H23 lung) of the same molecule?
**A.** 53.6 µM

**Q.** And the TGI (OVCAR-4 ovarian)?
**A.** 69.2 µM
